These are literature values, as cited in US7550162B2, “Labiatae herb extracts and hop extracts for extending the color life and inhibiting the growth of microorganisms in fresh meat, fish and poultry” (Kalsec Incorporated, priority 2001, dated 2009).

In one data set the test system is Gram-positive organisms. The following applies: value also given in ppm.
Another data set deals with Gram positive organisms. The following applies: in culture.
Another data set deals with Listeria. The following applies: soy broth.

In brackets after ≈: the same amount, converted by molar mass. Where two headings read alike, the source gives them in different places.

In the case of `CC(C)=CCC1=C(O)C(C(=O)CC(C)C)=C(O)C(CC=C(C)C)(CC=C(C)C)C1=O` [Lupulone (beta acids), Lupulone], the Minimum inhibitory concentration in the data set on Gram-positive organisms is 1 µg/mL (≈ 2.41 µM). Further, in the data set on Gram positive organisms, the MIC is given as 1-10 ppm. `CC(C)CCC(=O)C1(O)C(O)=C(C(=O)CC(C)C)C(=O)C1CCC(C)C` (centres unmarked) [Tetrahydroisohumulone, tetrahydroisohumulone]: the “concentration inhibiting Listeria” value in the data set with Listeria was 6-18 ppm. For the molecule `CC(C)CCC1=C(O)C(C(=O)C(C)C)=C(O)C(CCC(C)C)(CCC(C)C)C1=O` [hexahydrocolulupone, hexahydrocolupulone], in the data set on Listeria, the “concentration inhibiting Listeria” value is reported as 0.4 ppm.

With `CC(C)=CCC1=C(O)C(C(=O)CC(C)C)=C(O)C1O` (centres unmarked) [humulinic acid], the Minimum inhibitory concentration in the data set on Gram-positive organisms is 250 µg/mL (≈ 939 µM).

For `CC(C)=CCC(=O)C1(O)C(O)=C(C(=O)CC(C)C)C(=O)C1CC=C(C)C` (centres unmarked) [isohumulone], the relative activity in the data set on beer spoilage organisms (pH 3.8) is reported as 226; with beer spoilage organisms (pH 4.6), 42. In addition, the Minimum inhibitory concentration with Gram-positive organisms is 25 µg/mL (≈ 69 µM).
